Test results as given in patent US6833368B2, “1, 2, 5, 10-tetrahydropyridazino[4, 5-b]quinoline-1,10-diones and their use for the treatment of pain” (AstraZeneca AB, priority 2000, dated 2004).

Key:
[1] = molecular target: T1, NMDA receptor glycine site (Rattus norvegicus, UniProt P35439); experiment: Test A: Inhibition of binding of [3H]-MDL105,519 to brain membranes; conditions: inhibition of 1.2 nM [3H]MDL105,519 binding to brain membranes; rat or human membranes not specified
T1 construct: The rat brain membranes used in the experiments were obtained from Analytical Biological Services Inc; tissue Analytical Biological Services Inc; host or cells: rat brain membranes (cerebral cortex and hippocampus, Sprague Dawley)
Experimental: Test A: Inhibition of Binding of [^3H]-MDL105,519:
Binding of compounds to the NMDA receptor glycine site may be assessed by measuring the ability of test compounds to inhibit the binding of tritiated MDL105,519 to brain membranes bearing the receptor.
Rat Brain Membranes: The rat brain membranes used in the experiments were obtained from Analytical Biological Services Inc., and were prepared substantially in accordance with the method of B. M. Baron et al., J. Pharmacol. Exp. Ther. 250, 162 (1989). Briefly, fresh brain tissue including cerebral cortex and hippocampus from […] Sprague Dawley rats was homogenized in 0.32 M sucrose and centrifuged at low speed to separate cellular membranes from other cellular components. The membranes were then washed 3 times using deionized water, followed by treatment with 0.04% Triton X-100. Finally, membranes were washed six times in 50 mM Tris citrate buffer, pH 7.4, and frozen at −80° C. until use.
[^3H]MDL105,519 (72 Ci/mmol) was purchased from Amersham. Cold MDL105,519 was purchased from Sigma/RBI. Binding assays were performed substantially in accordance with the protocol of B. M. Baron et al., J. Pharmacol. Exp. Ther. 279, 62 (1996), as follows. On the day of the experiment, brain membranes were thawed at room temperature and suspended in 50 mM tris acetate buffer, pH 7.4 (“TAB”). Seventy-five micro grams per milliliter protein (by using the BioRad dye) were used for competition binding. The experiments were carried out using 96-well plates. Membranes were incubated with 20 μL of compounds of various concentrations and 1.2 nM [^3H]MDL105,519 for 30 minutes at room temperature in a total volume of 250 μL. Non specific binding was determined by using 100 μM of unlabeled MDL105,519. The unlabeled MDL105,519 and compounds were dissolved as 12.5 mM stock solutions in DMSO. Final DMSO concentration in each well was kept below 1%, which concentration was found not to alter the binding results. After incubation, unbound [^3H]MDL105,519 was removed by filtration onto GF/B Unifilter plates using a Packard harvester. Filters were washed four times with ice cold TAB (total of 1.2 mL buffer). The plates were dried overnight at room temperature and bound radioactivity was measured on a Packard TopCount after the addition of 45 μL per well of the MICROSCINT O.
Human Brain Membranes: Human brain membranes were obtained from Analytical Biological Services Inc., and assays were performed as described for rat membranes.
Data analysis: Data was analyzed using a Microsoft Excel spreadsheet and GraphPad Prizm software and potency of compounds is expressed as the Ki (nM).

[2] = system: CCI rats (thermal hyperalgesia); conditions: oral, three times daily for 5 days
Excerpt: The anti-hyperalgesic properties of a compound may be tested with the Chronic Constriction Injury (“CCI”) model.
Procedurally, Sprague-Dawley rats (250-350 g) are anesthetized with sodium pentobarbital and the common sciatic nerve is exposed at the level of the mid thigh by blunt dissection through the biceps femoris. A section of nerve (about 7 mm), proximal to the sciatic trifucation, is freed of tissue and ligated at four positions with chromic gut suture. The suture is tied with about 1 mm spacing between ligatures. The incision is closed in layers and the animals are allowed to recuperate. […] To perform the test, animals are habituated on an elevated glass floor. A radiant heat source is aimed at the mid-plantar hindpaw (sciatic nerve territory) through the glass floor with a 20 second cut-off used to prevent injury to the skin. The latencies for the withdrawal reflex in both hind paws are recorded.
Responses to test compounds are evaluated at different times after oral administration to determine the onset and duration of compound effect. When performing the test, groups of CCI rats receive either vehicle or the test compound orally three times daily for 5 days. […] Compound efficacy is expressed as mean percentage decrease of hyperalgesia compared to that of vehicle-treated animals, calculated as follows: [formula]

## O=c1c2ccc(Cl)cc2[nH]c2c(O)nn(C3CCSc4ccccc43)c(=O)c12 (racemic) [Ex. 1, (+/−)-7-chloro-4-hydroxy-2-(2H,3H,4H-Benzo[e]thian-4-yl)-1,2,5,10-tetrahydropyridazino[4,5-b]quinoline-1,10-dione]
[1]
  Ki: 0.411 µM
[2]; at the MED, versus vehicle-treated animals
  Test C % Inh. (percent decrease of hyperalgesia at MED): 56%
[2]; dose giving statistically significant decrease in hyperalgesia
  Test C MED (minimum effective dose): 30 mg/kg/day

## O=c1c2ccc(Cl)cc2[nH]c2c(O)nn(C3CCOc4ccccc43)c(=O)c12 (racemic) [Ex. 2, (+/−)-7-Chloro-4-hydroxy-2-(chroman-4-yl)-1,2,5,10-tetrahydropyridazino[4.5-b]quinoline-1.10-dione]
[1]
  Ki: 0.557 µM
other
  melting point: > 300 °C

## O=c1c2ccc(Cl)cc2[nH]c2c(O)nn(C3CCCc4sccc43)c(=O)c12 (racemic) [Ex. 3, (+/−)-7-Chloro-4-hydroxy-2-(4,5,6,7-tetrahydrobenzo[b]thien-4-yl)-1,2,5,10-tetrahydropyridazino[4,5-b]quinoline-1.10-dione]
[1]
  Ki: 0.514 µM
other
  melting point: > 300 °C

## O=c1c2ccc(Cl)cc2[nH]c2c(O)nn(C3CCCc4ccccc43)c(=O)c12 (racemic) [Ex. 4, (+/−)-7-Chloro-4-hydroxy-2-(1,2,3,4-tetrahydronaphth-1-yl)-1.2,5,10-tetrahydropyridazino[4,5-b]quinoline-1,10-dione]
[1]
  Ki: 0.725 µM
other
  melting point: > 300 °C
